# Reference: patent publication US7605156B2, “Methods for the use of inhibitors of cytosolic phospholipase A2” (Wyeth, priority 2001, dated 2009)
# Biological target: T1, cPLA2 (Homo sapiens, UniProt P47712)
# T1 sequence (P47712 1-749): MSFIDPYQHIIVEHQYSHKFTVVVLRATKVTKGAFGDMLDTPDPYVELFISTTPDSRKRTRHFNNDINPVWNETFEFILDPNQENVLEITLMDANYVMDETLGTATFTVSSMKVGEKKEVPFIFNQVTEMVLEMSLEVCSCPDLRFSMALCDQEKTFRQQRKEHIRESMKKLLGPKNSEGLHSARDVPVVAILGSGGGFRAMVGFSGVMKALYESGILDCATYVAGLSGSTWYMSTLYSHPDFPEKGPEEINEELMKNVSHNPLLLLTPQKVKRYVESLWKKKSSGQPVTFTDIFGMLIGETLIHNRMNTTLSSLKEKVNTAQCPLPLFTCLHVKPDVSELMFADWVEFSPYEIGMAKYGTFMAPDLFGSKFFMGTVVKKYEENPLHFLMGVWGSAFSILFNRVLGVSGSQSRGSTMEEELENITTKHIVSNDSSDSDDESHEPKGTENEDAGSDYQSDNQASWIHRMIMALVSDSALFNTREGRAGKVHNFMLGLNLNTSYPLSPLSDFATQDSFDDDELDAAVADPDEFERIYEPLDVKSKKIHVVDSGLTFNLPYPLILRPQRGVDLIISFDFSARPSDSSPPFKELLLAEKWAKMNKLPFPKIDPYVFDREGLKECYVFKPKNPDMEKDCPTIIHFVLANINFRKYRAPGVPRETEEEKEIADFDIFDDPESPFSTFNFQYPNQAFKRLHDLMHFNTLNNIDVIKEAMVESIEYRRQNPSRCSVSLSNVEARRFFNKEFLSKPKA
# Assay: Coumarine assay (hydrolysis of 7-hydroxycoumarinyl 6-heptenoate)
# Assay type: biochemical
# Conditions: 60 μM 7-hydroxycoumarinyl 6-heptenoate, pH 7.5; read-out: Coumarin IC50
row,Compound,IC50 [nM]
1,4-(3-{2-[2-({[2-(aminomethyl)phenyl]sulfonyl}amino)ethyl]-1-benzhydryl-5-chloro-1H-indol-3-yl}propyl)benzoic acid [Example 156],160
2,"O=C(O)c1ccc(OCCc2c(CCNS(=O)(=O)Cc3ccccc3)n(C(c3ccccc3)c3ccccc3)c3ccc(N4CCOCC4)cc23)cc1 [Example 33, 4-[2-(1-benzhydryl-2-{2-[(benzylsulfonyl)amino]ethyl}-5-morpholin-4-yl-1H-indol-′3-yl)ethoxy]benzoic acid]",2900
3,"CSc1ccccc1S(=O)(=O)NCCc1c(CCOc2ccc(C(=O)O)cc2)c2cc(Cl)ccc2n1C(c1ccccc1)c1ccccc1 [Example 239, 4-(2-{1-benzhydryl-5-chloro-2-[2-({[2-(methylthio)phenyl]sulfonyl}amino)ethyl]-1H-indol-3-yl}ethoxy)benzoic acid]",480
4,"CC1CCCN(CCS(=O)(=O)NCCc2c(CCOc3ccc(C(=O)O)cc3)c3cc(Cl)ccc3n2C(c2ccccc2)c2ccccc2)C1 (stereo not drawn) [Example 246, 4-(2-{I-benzhydryl-5-chloro-2-[2-({[2-(3-methylpiperidin-1-yl)ethyl]sulfonyl}amino)ethyl]-1H-indol-3-yl}ethoxy)benzoic acid]",1200
5,"O=C(O)c1ccc(CCCc2c(CCNS(=O)(=O)c3cccc(-c4ccccc4)c3)n(C(c3ccccc3)c3ccccc3)c3ccc(Cl)cc23)cc1 [Example 206, 4-[3-(1-benzhydryl-2-{-2-[-(1,1′-biphenyl-3-ylsulfonyl)amino]ethyl}-5-chloro-1H-indol-3-yl)propyl]benzoic acid]",500
6,"Cc1nc(S(=O)(=O)NCCc2c(CCOc3ccc(C(=O)O)cc3)c3cc(Cl)ccc3n2C(c2ccccc2)c2ccccc2)cn1C [Example 258, 4-{2-[1-benzhydryl-5-chloro-2-(2-{[(1,2-dimethyl-1H-imidazol-4-yl)sulfonyl]amino}ethyl)-1H-indol-3-yl]ethoxy}benzoic acid]",800
7,"Cc1nc(S(=O)(=O)NCCc2c(CCCc3ccc(C(=O)O)cc3)c3cc(Cl)ccc3n2C(c2ccccc2)c2ccccc2)cn1C [Example 257, 4-{3-[1-benzhydryl-5-chloro-2-(2-{[(1,2-dimethyl-1H-imidazol-4-yl)sulfonyl]amino}ethyl)-1H-indol-3-yl]propyl}benzoic acid]",500

# Results, then the compound that gave them:
row,IC50 [nM],Compound
1,320,"Cc1c(Cl)cc(F)cc1S(=O)(=O)NCCc1c(CCCc2ccc(C(=O)O)cc2)c2cc(Cl)ccc2n1C(c1ccccc1)c1ccccc1 [Example 263, 4-{3-[1-benzhydryl-5-chloro-2-(2-{[(3-chloro-5-fluoro-2-methylphenyl)sulfonyl]amino}ethyl)-1H-indol-3-yl]propyl}benzoic acid]"
2,350,"O=C(O)c1ccc(OCCc2c(CCNS(=O)(=O)c3ccccc3OCc3ccccc3)n(C(c3ccccc3)c3ccccc3)c3ccc(Cl)cc23)cc1 [Example 184, 4-(2-{1-Benzhydryl-2-[2-(2-benzyloxy-benzenesulfonylamino)-ethyl]-5-chloro-1H-indol-3-yl}-ethoxy)benzoic acid]"
3,240,"COc1cccc(OC)c1S(=O)(=O)NCCc1c(CCCc2ccc(C(=O)O)cc2)c2cc(Cl)ccc2n1C(c1ccccc1)c1ccccc1 [Example 275, 4-{3-[1-benzhydryl-5-chloro-2-(2-{[(2,6-dimethoxyphenyl)sulfonyl]amino}ethyl)-1H-indol-3-yl]propyl}benzoic acid]"
4,300,"CS(=O)(=O)c1ccc(S(=O)(=O)NCCc2c(CCCc3ccc(C(=O)O)cc3)c3cc(Cl)ccc3n2C(c2ccccc2)c2ccccc2)cc1 [Example 202, 4-(3-{1-Benzhydryl-5-chloro-2-{2-({[4-(methysulfonyl)phenyl]sulfonyl}amino)ethyl]-1H-indol-3-yl}propyl)benzoic acid]"
5,400,"O=C(O)c1ccc(OCCc2c(CCNS(=O)(=O)c3cccc(C(F)(F)F)c3)n(C(c3ccccc3)c3ccccc3)c3ccc(Cl)cc23)cc1 [Example 219, 4-(2-{1-benzhydryl-5-chloro-2-[2-({[3-(trifluoromethyl)phenyl]sulfonyl}amino)ethyl]-1H-indol-3-yl}ethoxy)benzoic acid]"
